# Activity calls are given as the source filed them. The calls are words filed in the database; no cut-off is given here.
# Tests used:
# [1] = system: Rattus norvegicus; experiment: Induction of hyperactivity in Sprague-Dawley rat administered into caudate putamen in presence of 0.2 to 0.8 mg/kg haloperidol; type: functional, organism-based
# [2] = system: Rattus norvegicus; experiment: Induction of hyperactivity in Sprague-Dawley rat administered into nucleus accumbens in presence of 5 mg/kg propranolol; type: functional, organism-based; design: dose 5 mg/kg
# [3] = system: Rattus norvegicus; experiment: Induction of hyperactivity in Sprague-Dawley rat administered into nucleus accumbens in presence of 5 mg/kg aceperone; type: functional, organism-based; design: dose 5 mg/kg
# [4] = species: Felis catus; experiment: Agonist activity at dopamine receptor in cat right atrium assessed as inhibition of cardiaccelerator nerve stimulation rate by cardiotachometer analysis; type: tissue-based; conditions: Cardiac atrium
# [5] = system: Felis catus; experiment: Inhibition of 10 Hz electric current-induced cardioaccelerator nerve stimulation in iv dosed cat by cardiotachometer analysis; type: functional, organism-based
# [6] = system: Rattus norvegicus; experiment: Induction of circling behaviour in sc dosed Sprague-Dawley rat assessed as reversal of spontaneous ipsilateral to contralateral circling response; type: functional, organism-based
# [7] = system: Canis familiaris; experiment: Toxicity in dog up to 2 mg/kg, sc; type: organism-based, Canis lupus familiaris; design: dose 2 mg/kg, route subcutaneous; conditions: in vivo
# [8] = system: Canis familiaris; experiment: Induction of emesis in sc dosed dog; type: functional; conditions: Canis lupus familiaris
# [9] = system: Rattus norvegicus; experiment: Induction of circling behaviour in sc dosed Sprague-Dawley rat in presence of 0.8 mg/kg haloperidol; type: functional, organism-based; design: dose 0.8 mg/kg
# [10] = system: Rattus norvegicus; experiment: Induction of stereotyped behaviour in Sprague-Dawley rat administered into nucleus accumbens in presence of 0.2 to 0.8 mg/kg haloperidol; type: functional, organism-based
# [11] = system: Rattus norvegicus; experiment: Induction of circling behaviour in sc dosed Sprague-Dawley rat assessed as duration of action; type: functional
# [12] = system: Rattus norvegicus; experiment: Induction of stereotyped behaviour in Sprague-Dawley rat administered into caudate putamen in presence of 5 mg/kg aceperone; type: functional, organism-based; design: dose 5 mg/kg
# [13] = system: Rattus norvegicus; experiment: Induction of hyperactivity in Sprague-Dawley rat administered into nucleus accumbens in presence of 0.2 to 0.8 mg/kg haloperidol; type: functional, organism-based
# [14] = system: Felis catus; experiment: Effect on heart rate in iv dosed cat; type: functional, organism-based
# [15] = system: Rattus norvegicus; experiment: Induction of stereotyped behaviour in Sprague-Dawley rat administered into nucleus accumbens in presence of 5 mg/kg propranolol; type: functional, organism-based; design: dose 5 mg/kg
# [16] = system: Rattus norvegicus; experiment: Induction of hyperactivity in Sprague-Dawley rat administered into nucleus accumbens; type: functional, organism-based
# [17] = system: Rattus norvegicus; experiment: Induction of circling behaviour in Sprague-Dawley rat administered into nucleus accumbens in presence of aceperone; type: functional, organism-based
# [18] = system: Rattus norvegicus; experiment: Induction of stereotyped behaviour in Sprague-Dawley rat administered into caudate putamen in presence of 5 mg/kg propranolol; type: functional, organism-based; design: dose 5 mg/kg
# [19] = system: Columba livia; experiment: Antagonism of apomorphine-induced pecking in im dosed pigeon treated 15 mins prior to apomorphine challenge; type: functional
# [20] = system: Felis catus; experiment: Hypotensive activity in iv dosed cat; type: functional, organism-based
# [21] = system: Felis catus; experiment: Hypotensive activity in iv dosed cat in presence of haloperidol; type: functional, organism-based
# [22] = system: Rattus norvegicus; experiment: Induction of stereotyped behaviour in Sprague-Dawley rat administered into nucleus accumbens in presence of 5 mg/kg aceperone; type: functional, organism-based; design: dose 5 mg/kg
# [23] = system: Rattus norvegicus; experiment: Induction of stereotyped behaviour in Sprague-Dawley rat at 2.5 to 20 mg/kg, sc; type: functional, organism-based
# [24] = system: Rattus norvegicus; experiment: Induction of circling behaviour in Sprague-Dawley rat administered into caudate putamen; type: functional, organism-based
# [25] = system: Rattus norvegicus; experiment: Induction of circling behaviour in Sprague-Dawley rat administered into nucleus accumbens in presence of haloperidol; type: functional, organism-based
# [26] = system: Canis familiaris; experiment: Antagonism of apomorphine-induced emesis in sc dosed dog treated 15 mins prior to apomorphine challenge; type: functional, organism-based; conditions: Canis lupus familiaris
# [27] = system: Rattus norvegicus; experiment: Induction of stereotyped behaviour in Sprague-Dawley rat administered into caudate putamen; type: functional, organism-based
# [28] = system: Rattus norvegicus; experiment: Induction of hyperactivity in Sprague-Dawley rat administered into caudate putamen; type: functional, organism-based
# [29] = system: Rattus norvegicus; experiment: Induction of circling behaviour in sc dosed Sprague-Dawley rat in presence of 5 mg/kg aceperone; type: functional, organism-based; design: dose 5 mg/kg
# [30] = system: Rattus norvegicus; experiment: Induction of hyperactivity in Sprague-Dawley rat administered into caudate putamen in presence of 5 mg/kg aceperone; type: functional, organism-based; design: dose 5 mg/kg
# [31] = system: Rattus norvegicus; experiment: Induction of hyperactivity in Sprague-Dawley rat administered into caudate putamen in presence of 5 mg/kg propranolol; type: functional, organism-based; design: dose 5 mg/kg
# [32] = system: Rattus norvegicus; experiment: Induction of circling behaviour in Sprague-Dawley rat administered into caudate putamen in presence of propranolol; type: functional, organism-based
# [33] = system: Felis catus; experiment: Inhibition of 2 Hz electric current-induced cardioaccelerator nerve stimulation in iv dosed cat by cardiotachometer analysis; type: functional
# [34] = system: Rattus norvegicus; experiment: Induction of circling behaviour in sc dosed Sprague-Dawley rat in presence of 5 mg/kg propranolol; type: functional, organism-based; design: dose 5 mg/kg
# [35] = system: Rattus norvegicus; experiment: Induction of circling behaviour in sc dosed Sprague-Dawley rat assessed as onset of action; type: functional
# [36] = system: Rattus norvegicus; experiment: Induction of stereotyped behaviour in Sprague-Dawley rat administered into caudate putamen in presence of 0.2 to 0.8 mg/kg haloperidol; type: functional, organism-based
# [37] = system: Rattus norvegicus; experiment: Induction of circling behaviour in Sprague-Dawley rat administered into caudate putamen in presence of haloperidol; type: functional, organism-based
# [38] = system: Rattus norvegicus; experiment: Induction of circling behaviour in Sprague-Dawley rat administered into nucleus accumbens; type: functional, organism-based
# [39] = system: Rattus norvegicus; experiment: Induction of circling behaviour in Sprague-Dawley rat administered into nucleus accumbens in presence of propranolol; type: functional, organism-based
# [40] = system: Felis catus; experiment: Inhibition of 2 Hz electric current-induced cardioaccelerator nerve stimulation in iv dosed cat by cardiotachometer analysis in presence of 2 mg/kg, iv phentolamine; type: functional, organism-based; design: dose 2 mg/kg; conditions: at 2 mg/kg
# [41] = system: Columba livia; experiment: Induction of pecking in im dosed pigeon; type: functional, organism-based
# [42] = system: Rattus norvegicus; experiment: Induction of circling behaviour in Sprague-Dawley rat administered into caudate putamen in presence of aceperone; type: functional, organism-based
# [43] = system: Felis catus; experiment: Inhibition of 2 Hz electric current-induced cardioaccelerator nerve stimulation in iv dosed cat by cardiotachometer analysis in presence of 0.2 mg/kg, iv haloperidol; type: functional, organism-based; design: dose 0.2 mg/kg; conditions: at 0.2 mg/kg
# [44] = system: Rattus norvegicus; experiment: Induction of stereotyped behaviour in Sprague-Dawley rat administered into nucleus accumbens; type: functional, organism-based
# [45] = system: Rattus norvegicus; experiment: Induction of hyperactivity in Sprague-Dawley rat at 2.5 to 20 mg/kg, sc; type: functional, organism-based
# [46] = system: Rattus norvegicus; experiment: Induction of stereotyped behaviour in sc dosed Sprague-Dawley rat assessed as onset of action; type: functional
# [47] = system: Rattus norvegicus; experiment: Induction of stereotyped behaviour in sc dosed Sprague-Dawley rat assessed as duration of action; type: functional
# [48] = system: Columba livia; experiment: Induction of pecking in pigeon at 1.62 umol/kg, im; type: functional, organism-based
# [49] = system: Rattus norvegicus; experiment: Induction of stereotyped behaviour in sc dosed Sprague-Dawley rat; type: functional, organism-based
compound,measurement,setting,value
CCN(CC)CCc1ccc(O)c(O)c1,Activity,[1],inactive
same,Activity,[2],Active
same,Activity,[3],Active
same,ED50,[4],0.34 µmol/L
same,inhibition,[5],inactive
same,Activity,[6],Active
same,Activity,[7],Non-toxic
same,ED50,[8],inactive
same,Activity,[9],inactive
same,Activity,[10],inactive
same,Time,[11],5 min
same,Activity,[12],Active
same,Activity,[13],inactive
same,Activity,[14],inactive
same,Activity,[15],Active
same,Activity,[16],Active
same,Activity,[17],Active
same,Activity,[18],Active
same,ED50,[19],inactive
same,Activity,[20],Active
same,Activity,[21],inactive
same,Activity,[22],Active
same,Activity,[23],inactive
same,Activity,[24],Active
same,Activity,[25],inactive
same,inhibition,[26],inactive
same,Activity,[27],Active
same,Activity,[28],Active
same,Activity,[29],Active
same,Activity,[30],Active
same,Activity,[31],Active
same,Activity,[32],Active
same,ED50,[33],0.041 µmol/kg
same,Activity,[34],Active
same,Time,[35],3 min
same,Activity,[36],inactive
same,Activity,[37],inactive
same,Activity,[38],Active
same,Activity,[39],Active
same,inhibition,[40],Active
same,Activity,[41],inactive
same,Activity,[42],Active
same,inhibition,[43],inactive
same,Activity,[44],Active
same,Activity,[45],inactive
CN1CCc2cccc3c2[C@H]1Cc1ccc(O)c(O)c1-3.CN1CCc2cccc3c2[C@H]1Cc1ccc(O)c(O)c1-3.Cl.Cl.O [APOMORPHINE HYDROCHLORIDE],ED50,[4],0.043 µmol/L
same,Activity,[6],Active
same,ED50,[8],0.13 µmol/kg
same,Activity,[9],inactive
same,Time,[11],40 min
same,Activity,[29],Active
same,Time,[46],<5 min
same,Time,[47],20 min
same,ED50,[33],0.1 µmol/kg
same,Activity,[34],Active
same,Time,[35],3 min
same,Activity,[48],Active
same,Activity,[49],Dose-dependent effect
same,inhibition,[43],inactive

# — ChEMBL document CHEMBL3244265, “Preparation and biological actions of some symmetrically N,N-disubstituted dopamines” (J Med Chem, 1978)
